One assay has as its system TAG. Description: TAG lipid buildup inhibition with viability readout – cell-based, panel, Nile Red and DAPI fluorescence, H9c2, dose response (AID 651630).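 Also: cells exposed to compound overnight before fixation and staining.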 The following applies: H9c2 cells, Nile Red TAG fluorescence, oleic acid.
A further assay deals with DAPI. Described as above. The conditions noted are these: H9c2 cells, DAPI nuclear fluorescence (cytotoxicity counter-readout), oleic acid.

Each structure is given as a SMILES string. Activity calls are given as the source filed them.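 The calls were made as follows: active = lipid-stain IC50 at or below a set limit, with nuclear-stain toxicity IC50 at least five times higher; inactive = the rest.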

Regarding `O=[N+]([O-])c1ccccc1/C=C/C=N/Nc1ccc(S(=O)(=O)Nc2ccc(Cl)cc2)cc1[N+](=O)[O-]`, the IC50 (usually the concentration needed to halve the response being measured) with TAG (mean of runs) was 4.41 µM; in the assay on TAG (run 1), 3.5 µM; in the assay with TAG (run 2), 5.32 µM. Besides, the IC50 cytotoxicity (DAPI nuclear signal decrease) in the assay on DAPI (run 1) and in the assay with DAPI (run 2) was above 25 µM each time.
As to `CC1(c2ccccc2)O[C@@H]2C[C@H]3[C@@H]4CCC5=CC(=O)C=C[C@]5(C)[C@@]4(F)[C@@H](O)C[C@]3(C)[C@]2(C(=O)CO)O1` (some centres not stated), the concentration for half-maximal inhibition (IC50) was 13.9 µM in the assay on TAG (mean of runs), 13 µM in the assay with TAG (run 1) and 14.7 µM in the assay with TAG (run 2). Also, the IC50 cytotoxicity (DAPI nuclear signal decrease) in the assay with DAPI (mean of runs) was > 25 µM (inactive); in the assay on DAPI (run 1) it was above 25 µM; with DAPI (run 2), above 25 µM.
For `Cc1ccc(Nc2nc(OC(C(F)(F)F)C(F)(F)F)nc(N3CCOCC3)n2)cc1`, the results for the IC50 in the assay on TAG (mean of runs), in the assay on TAG (run 1) and in the assay on TAG (run 2) were 7.62 µM, 7.92 µM and 7.32 µM, respectively. Further, the values for the IC50 cytotoxicity (DAPI nuclear signal decrease) with DAPI (run 1) and in the assay on DAPI (run 2) were 22.3 µM and above 25 µM, respectively.
Take `COc1cc(C2c3cc4c(cc3OC(C)(N3CCCC3)C2C)OCO4)cc(OC)c1OC` (configuration not stated): the IC50 was 13.8 µM in the assay with TAG (mean of runs), 10.4 µM with TAG (run 1) and 17.1 µM in the assay with TAG (run 2). Further, the IC50 cytotoxicity (DAPI nuclear signal decrease) was > 25 µM (inactive) in the assay on DAPI (mean of runs), above 25 µM in the assay on DAPI (run 1) and above 25 µM in the assay with DAPI (run 2).
With `CC(C)(C)OC(=O)N(CCc1ccccc1)Cc1ccc(OCc2cccc(NC(=O)/C=C/c3ccccc3)c2)cc1`, the IC50 is 7.63 µM with TAG (mean of runs), 7.99 µM in the assay on TAG (run 1) and 7.28 µM in the assay with TAG (run 2). Besides, the IC50 cytotoxicity (DAPI nuclear signal decrease) was > 25 µM (inactive) with DAPI (mean of runs), above 25 µM in the assay on DAPI (run 1) and above 25 µM in the assay on DAPI (run 2).
Take `CCCOc1ccc(F)cc1-c1cc(C(=O)NCc2cc(OC)cc(OC)c2)[nH]n1`: the half-maximal inhibitory concentration (IC50) is 10.1 µM with TAG (mean of runs), 10.8 µM in the assay with TAG (run 1) and 9.39 µM in the assay on TAG (run 2). Also, the IC50 cytotoxicity (DAPI nuclear signal decrease) in the assay on DAPI (mean of runs) is > 25 µM (inactive); in the assay on DAPI (run 1), above 25 µM; in the assay with DAPI (run 2), above 25 µM.
Take `COc1ccc(-c2nc3ccc(Cl)cn3c2NC2CCCCC2)cc1SC1CCCCC1`: the IC50 with TAG (mean of runs) is 3.44 µM; in the assay with TAG (run 1), 2.41 µM; in the assay with TAG (run 2), 4.47 µM. In addition, the IC50 cytotoxicity (DAPI nuclear signal decrease) with DAPI (run 1) and in the assay on DAPI (run 2) was above 25 µM each time.
Regarding `COc1ccccc1N1CCN(CC(=O)Nc2cc(C)nn2-c2nc(C)cc(C)n2)CC1`, the IC50 with TAG (mean of runs) was 18.9 µM (inactive); in the assay with TAG (run 1) it was 19.7 µM; in the assay on TAG (run 2), 18.1 µM. Further, the IC50 cytotoxicity (DAPI nuclear signal decrease) was > 25 µM (inactive) in the assay on DAPI (mean of runs), above 25 µM with DAPI (run 1) and above 25 µM in the assay on DAPI (run 2).
Turning to `Cc1ccc(NC(=O)c2nc[nH]c2C(=O)NCCCCCCNC(=O)c2[nH]cnc2C(=O)Nc2ccc(C)cc2)cc1`, the half-maximal inhibitory concentration (IC50) was 9.03 µM in the assay with TAG (mean of runs), 8.97 µM with TAG (run 1) and 9.09 µM in the assay on TAG (run 2). Besides, the IC50 cytotoxicity (DAPI nuclear signal decrease) is > 25 µM (inactive) in the assay with DAPI (mean of runs), above 25 µM with DAPI (run 1) and above 25 µM in the assay on DAPI (run 2).
As for `COc1cc(-c2noc(C)c2C#Cc2ccc(N)cc2)cc(OC)c1OC`, the IC50 is above 25 µM in the assay with TAG (run 1) and 8.23 µM in the assay on TAG (run 2). Also, the figures for the IC50 cytotoxicity (DAPI nuclear signal decrease) with DAPI (mean of runs), in the assay on DAPI (run 1) and in the assay with DAPI (run 2) were > 25 µM (inactive), above 25 µM and above 25 µM, respectively.
Turning to `CCOC(=O)c1ccc(NC(=O)c2nc[nH]c2C(=O)NCCCCNC(=O)c2[nH]cnc2C(=O)Nc2ccc(C(=O)OCC)cc2)cc1`, the 50% inhibitory concentration (IC50) in the assay with TAG (mean of runs) was 3.89 µM; with TAG (run 1), 3.09 µM; with TAG (run 2) it was 4.69 µM. In addition, the IC50 cytotoxicity (DAPI nuclear signal decrease) in the assay on DAPI (run 1) and with DAPI (run 2) was above 25 µM in each case.
Turning to `CC(C)c1ccc(Nc2ncc3c(n2)CCN(C(=O)Nc2ccc(F)c(Cl)c2)C3)cc1`, the results for the IC50 with TAG (mean of runs), in the assay with TAG (run 1) and in the assay on TAG (run 2) were 4.65 µM, 2.95 µM and 6.36 µM, respectively. In addition, the IC50 cytotoxicity (DAPI nuclear signal decrease) with DAPI (run 1) and with DAPI (run 2) was above 25 µM each time.
Consider `O=C(Nc1ccc(/C=C/c2nc3ccccc3o2)cc1)c1c(F)cccc1F`, for which the IC50 with TAG (mean of runs) is 10.5 µM; in the assay on TAG (run 1), 13.2 µM; with TAG (run 2) it was 7.82 µM. Moreover, the IC50 cytotoxicity (DAPI nuclear signal decrease) is > 25 µM (inactive) with DAPI (mean of runs), above 25 µM in the assay on DAPI (run 1) and above 25 µM in the assay on DAPI (run 2).
For `COc1cc(OC)c2c(-c3ccccc3)cc(=O)oc2c1C(CCN1CCCCC1)c1ccc(N(C)C)cc1` (configuration not stated), the figures for the half-maximal inhibitory concentration (IC50) in the assay on TAG (run 1) and in the assay on TAG (run 2) were 9.65 µM and above 25 µM, respectively. The IC50 cytotoxicity (DAPI nuclear signal decrease) in the assay on DAPI (run 1) was 15.9 µM; in the assay on DAPI (run 2) it was above 25 µM.
For `COC(=O)c1c(NC(NC(=O)C(C)(C)C)C(Cl)(Cl)Cl)sc2c1CCC2` (configuration not stated), the IC50 in the assay on TAG (mean of runs) was 13.3 µM; in the assay on TAG (run 1) it was 13.1 µM; with TAG (run 2), 13.5 µM. Besides, the IC50 cytotoxicity (DAPI nuclear signal decrease) in the assay on DAPI (mean of runs) was > 25 µM (inactive); with DAPI (run 1) it was above 25 µM; in the assay on DAPI (run 2) it was above 25 µM.
For `C[C@@]12C(=O)Nc3ccc(Br)cc3C(=O)N1[C@H]1c3cc(Cl)ccc3OC[C@@H]1[C@@H]2c1ccccc1`, the IC50 was 14.6 µM with TAG (mean of runs), 9.4 µM in the assay on TAG (run 1) and 19.8 µM with TAG (run 2). Also, the IC50 cytotoxicity (DAPI nuclear signal decrease) is > 25 µM (inactive) with DAPI (mean of runs), above 25 µM in the assay with DAPI (run 1) and above 25 µM in the assay with DAPI (run 2).
Turning to `Cc1ccc(-c2nc(NC(=O)c3cc(C(C)(C)C)nn3C)sc2C)cc1Cl`, the IC50 in the assay on TAG (mean of runs) is 5.56 µM; in the assay on TAG (run 1), 6.38 µM; in the assay with TAG (run 2) it was 4.74 µM. In addition, the values for the IC50 cytotoxicity (DAPI nuclear signal decrease) in the assay on DAPI (mean of runs), in the assay on DAPI (run 1) and in the assay on DAPI (run 2) were 21.1 µM (inactive), 20.2 µM and 22 µM, respectively.
With `Cc1cccc(Nc2nc(NCc3ccco3)nc(N3CCOCC3)n2)c1`, the IC50 is > 25 µM (inactive) with TAG (mean of runs), above 25 µM in the assay on TAG (run 1) and above 25 µM in the assay on TAG (run 2). Moreover, the IC50 cytotoxicity (DAPI nuclear signal decrease) was > 25 µM (inactive) with DAPI (mean of runs), above 25 µM with DAPI (run 1) and above 25 µM in the assay on DAPI (run 2).
As for `COc1ccc2sc(-c3ccc(N(C)C)cc3)c(C#CCCO)c2c1`, the values for the IC50 in the assay with TAG (mean of runs), with TAG (run 1) and in the assay on TAG (run 2) were 8.86 µM, 7.52 µM and 10.2 µM, respectively. Also, the results for the IC50 cytotoxicity (DAPI nuclear signal decrease) in the assay on DAPI (mean of runs), with DAPI (run 1) and in the assay with DAPI (run 2) were > 25 µM (inactive), above 25 µM and above 25 µM, respectively.
On to `CCn1c(SCC(=O)Nc2nc(-c3ccc(C)cc3)cs2)nnc1-c1ccccc1O`, for which the IC50 in the assay with TAG (mean of runs) was 1.68 µM; with TAG (run 1) it was 1.65 µM; with TAG (run 2), 1.71 µM. Also, the IC50 cytotoxicity (DAPI nuclear signal decrease) in the assay on DAPI (run 1) and in the assay on DAPI (run 2) was above 25 µM throughout.
Consider `O=C(c1ccoc1)N1CCN(c2cc(-c3ccccc3)nc3cc(-c4ccc(Br)cc4)nn23)CC1`, for which the IC50 in the assay on TAG (mean of runs) is 12.1 µM; in the assay on TAG (run 1) it was 12.8 µM; with TAG (run 2), 11.3 µM. Besides, the figures for the IC50 cytotoxicity (DAPI nuclear signal decrease) in the assay on DAPI (mean of runs), with DAPI (run 1) and with DAPI (run 2) were > 25 µM (inactive), above 25 µM and above 25 µM, respectively.
Turning to `CC(=O)c1ccc(Oc2cc(C)nc(-n3nc(C)cc3C)n2)cc1`, the IC50 was 11.5 µM in the assay with TAG (mean of runs), 10.4 µM in the assay on TAG (run 1) and 12.5 µM in the assay with TAG (run 2). For the same compound, the IC50 cytotoxicity (DAPI nuclear signal decrease) with DAPI (mean of runs) was > 25 µM (inactive); in the assay with DAPI (run 1) it was above 25 µM; with DAPI (run 2) it was above 25 µM.
As to `CCc1nc(C)c(C(=O)N2CCCC(C(=O)Nc3cccc(-c4cccc(C)c4)c3)C2)o1` (configuration not stated), the IC50 in the assay on TAG (mean of runs) is > 25 µM (inactive); in the assay on TAG (run 1), above 25 µM; in the assay on TAG (run 2) it was above 25 µM. Further, the IC50 cytotoxicity (DAPI nuclear signal decrease) with DAPI (mean of runs) was > 25 µM (inactive); in the assay with DAPI (run 1), above 25 µM; with DAPI (run 2), above 25 µM.
On to `CCN(CC)CCNc1nc2cc(OC)c(OC)cc2c2nc(-c3ccccc3)nn12`, for which the IC50 with TAG (mean of runs) was > 25 µM (inactive); with TAG (run 1) it was above 25 µM; in the assay with TAG (run 2), above 25 µM. In addition, the IC50 cytotoxicity (DAPI nuclear signal decrease) in the assay with DAPI (mean of runs) was > 25 µM (inactive); in the assay with DAPI (run 1), above 25 µM; with DAPI (run 2) it was above 25 µM.
For the compound `COC(=O)C1=C(c2ccc(OCc3ccccc3)cc2)C[C@@H]2CC[C@H]1N2C(=O)NCc1ccc(C(C)(C)C)cc1`, the values for the IC50 with TAG (mean of runs), in the assay on TAG (run 1) and in the assay on TAG (run 2) were 16.7 µM (inactive), 14.2 µM and 19.1 µM, respectively. Further, the IC50 cytotoxicity (DAPI nuclear signal decrease) in the assay on DAPI (mean of runs) was > 25 µM (inactive); with DAPI (run 1), above 25 µM; in the assay on DAPI (run 2), above 25 µM.
`Cc1noc(C)c1CSc1nc2[nH]ncc2c(=O)n1-c1ccccc1`: the results for the IC50 in the assay with TAG (mean of runs), in the assay on TAG (run 1) and with TAG (run 2) were 4.41 µM, 3.41 µM and 5.41 µM, respectively. The IC50 cytotoxicity (DAPI nuclear signal decrease) in the assay on DAPI (run 1) and with DAPI (run 2) was above 25 µM in each case.
In the case of `CCCCN(C)C(=O)c1ccc(Nc2nc(C(N)Cc3ccc(C(F)(F)F)cc3)cs2)nc1` (configuration not stated), the figures for the IC50 in the assay on TAG (mean of runs), in the assay on TAG (run 1) and in the assay with TAG (run 2) were > 25 µM (inactive), above 25 µM and above 25 µM, respectively. The IC50 cytotoxicity (DAPI nuclear signal decrease) is > 25 µM (inactive) with DAPI (mean of runs), above 25 µM in the assay with DAPI (run 1) and above 25 µM with DAPI (run 2).
